The record followed here is ChEMBL document CHEMBL3507680, “University of Dundee, Gates Library screen for HepG2 cell viability”.

The nature of this data set: Human HepG2 cell viability assay in 384 well format. It counts as toxicity, cell-based. On the set-up: dose 125 nL, time 70.5 hour; concentration not given beside the values. Conditions: HepG2 cells, read-out: Inhibition.
As for `CNS(=O)(=O)c1c(C)sc2ccccc12`, the cytotoxicity at 70.5 h is -0.847%.

`NC(=O)C1CCN(C(=O)NC(Cc2ccccc2)C(F)(F)F)CC1` (stereo not drawn): the cytotoxicity at 70.5 h was found to be 3.75%.

With `CC(C)(C)CC(NC(=O)N1CCS(=O)(=O)CC1)C(F)(F)F` (stereo not drawn), the cytotoxicity at 70.5 h was -4.28%.

Consider `CC(C)(C)CC(NC(=O)N1CCC(C(N)=O)CC1)C(F)(F)F` (stereo not drawn), for which the cytotoxicity at 70.5 h amounted to 5.66%.

Take `CC(C)(NCCOc1ccc(CC#N)cc1)c1nccs1`: the cytotoxicity at 70.5 h is -2.87%.

Turning to `CCC(CNC(=O)c1cccc(S(=O)(=O)NC)c1)N1CCCC1` (stereo not drawn), the cytotoxicity at 70.5 h was -2.78%.

Regarding `CC1CCCCN1C(=O)COc1nc(Cc2ccc(F)cc2)no1` (stereo not drawn), the cytotoxicity at 70.5 h is -6.78%.

Turning to `Cc1cc(C)cc(NCCC(=O)NCc2cccnc2N(C)C)c1`, the cytotoxicity at 70.5 h was -5.81%.

On to `CN(CCc1ccncc1)CCc1nccs1`, for which the cytotoxicity at 70.5 h is -12.8%.

Take `COCC1CCN(c2ccnc3ccsc23)C1` (stereo not drawn): the cytotoxicity at 70.5 h was -5.48%.

Regarding `CN(CCc1cccs1)CCc1nccs1`, the cytotoxicity at 70.5 h was determined as 0.685%.

Consider `CC(CNC(=O)N(C)Cc1ccco1)N1CCc2sccc2C1` (stereo not drawn), for which the cytotoxicity at 70.5 h was 4.72%.

On to `CC(CNC(=O)NCc1ccco1)N1CCc2sccc2C1` (stereo not drawn), for which the cytotoxicity at 70.5 h is 36.1%.

As to `CCn1c(=O)n(CCC(=O)N(C)Cc2ccc(C)o2)c2ccccc21`, the cytotoxicity at 70.5 h is -4.18%.

`Cn1c(CN2CCC(N3CCNC3=O)CC2)cc(=O)n(C)c1=O`: the cytotoxicity at 70.5 h is -7.49%.

For the molecule `CC(=O)N1CCC(NC(=O)Cc2nc3nc(C)cc(C)n3n2)CC1`, the cytotoxicity at 70.5 h was -3.83%.

For `CC(Cn1cccn1)Nc1cnc2ccccc2n1` (stereo not drawn), the cytotoxicity at 70.5 h is -0.212%.

Take `Cc1cnn(CC(C)Nc2nc3ccccc3o2)c1` (stereo not drawn): the cytotoxicity at 70.5 h was determined as 24.3%.

For the molecule `Cc1cnn(CCNc2cnc3ccccc3n2)c1`, the cytotoxicity at 70.5 h is -1.2%.

Take `Cc1ccc(C(C)NC(=O)CSCC(N)=O)cc1` (stereo not drawn): the cytotoxicity at 70.5 h is -0.981%.

As to `O=C(CCc1ccccc1)NCC(O)c1c(F)cccc1F` (stereo not drawn), the cytotoxicity at 70.5 h is -3.12%.

`CS(=O)(=O)CCNC(=O)Nc1ccc(Cl)cc1-n1cccc1`: the cytotoxicity at 70.5 h came out at 23.7%.

Take `O=C(Nc1cnn(-c2ccccc2Cl)c1)NC1CCC(O)CC1` (stereo not drawn): the cytotoxicity at 70.5 h was determined as 23.9%.

In the case of `COCCC(=O)NCC(O)c1c(F)cccc1F` (stereo not drawn), the cytotoxicity at 70.5 h was -7.9%.

As for `CCOCCS(=O)(=O)c1nnc(NCCOC)s1`, the cytotoxicity at 70.5 h came to 23.1%.

As for `COc1ccc(C2CCN(Cc3cscn3)CC2)cc1`, the cytotoxicity at 70.5 h amounted to 0.308%.

On to `Cc1ccc(C(C)NC(=O)CCc2cnn(C)c2)cc1F` (stereo not drawn), for which the cytotoxicity at 70.5 h was -8.21%.

As for `CNC(=O)N(C)CC1(c2ccc(Br)cc2)CC1`, the cytotoxicity at 70.5 h is -3.73%.

As for `CN(Cc1ccco1)C(=O)C1CCCc2ccccc21` (stereo not drawn), the cytotoxicity at 70.5 h was -3.68%.

Turning to `CCC(c1ccc(F)cc1F)N1CCN(CCO)CC1` (stereo not drawn), the cytotoxicity at 70.5 h is -6.18%.

With `CC(CNC(=O)CCc1ccco1)N1CCc2sccc2C1` (stereo not drawn), the cytotoxicity at 70.5 h came out at 3.4%.

As to `N#CCCN(Cc1ccco1)C(=O)C1CCCc2ccccc21` (stereo not drawn), the cytotoxicity at 70.5 h is -6.61%.

Regarding `CCSCc1ccc(C(=O)N2CCCN(CC(N)=O)CC2)cc1`, the cytotoxicity at 70.5 h was -5.22%.

With `Cn1cccc1C(=O)COc1ccc(S(N)(=O)=O)cc1`, the cytotoxicity at 70.5 h came to 0.32%.

Take `Cc1ccc(NC(=O)NCC2CCS(=O)(=O)C2)cc1Cl` (stereo not drawn): the cytotoxicity at 70.5 h came out at 0.575%.

Turning to `COc1cc(C(C)=O)ccc1OCC(=O)c1cccn1C`, the cytotoxicity at 70.5 h was found to be 32.2%.

For the molecule `N#CCSCC(=O)NCC1CCCCC1`, the cytotoxicity at 70.5 h was -7.13%.

Take `O=C(NCC1CCS(=O)(=O)C1)c1ccco1` (stereo not drawn): the cytotoxicity at 70.5 h was -8.58%.

As for `NC(=O)CN1CCCN(C(=O)c2ccc(SC(F)F)cc2)CC1`, the cytotoxicity at 70.5 h is -6.46%.

For the molecule `NC(=O)CSCC(=O)NCC1CCCC1`, the cytotoxicity at 70.5 h was -10.8%.

On to `CC(C)(C)n1ncc(NCC(O)c2ccccc2)c(Cl)c1=O` (stereo not drawn), for which the cytotoxicity at 70.5 h was determined as 25.2%.

As for `CC1CN(C(=O)Nc2cc(C(F)(F)F)c[nH]c2=O)CCO1` (stereo not drawn), the cytotoxicity at 70.5 h is -8.88%.

For the molecule `CC(C)(N)CNS(=O)(=O)Cc1cccc2cccnc12`, the cytotoxicity at 70.5 h was determined as 1.51%.
